Measured values from US12599560B2, “Lipids and lipid nanoparticle formulations” (Longuide Biopharma Corporation, priority 2023, dated 2026).

Experiments:
[1] = Particle size and PDI by dynamic light scattering; format: physicochemical; details: Table 4
Procedure: The 7.5 μL nucleic acid lipid nanoparticle solution (containing approximately 0.04 mg/mL mRNA) was taken and added with 200 μL ultrapure water, mixed by gentle blowing using a pipette tip, and the particle size of the nanopreparation was detected by dynamic lightscattering (DLS) using a Malvern Dynamic Light Scattering Instrument (Malvern Instruments Ltd., ZEN3700, UK). 27.5 μL nucleic acid lipid nanoparticle solution (containing about 0.04 mg/mL mRNA) was taken and added with 200 μL ultrapure water. A pipette tip was used to gently blow the sample and mix well. The particle size of the nanopreparation was detected by Malvern Dynamic Light Scattering Instrument (Malvern Instruments Ltd., ZEN3700, UK). After the detection, the sample was recovered to an EP tube, and 600 μL of ultrapure water was added, gently blown with a pipette tip, and the potential of the nanopreparation was measured by a Malvern particle size meter.

[2] = system: mice; assay: In vivo delivery of FLuc-mRNA lipid nanoparticle preparations in mice (IVIS imaging); set-up: In vivo IVIS / In vivo IVIS (liver) / In vivo IVIS (spleen): unit not given here; details: Table 4
Procedure: 7. In Vivo Delivery of the Nucleic Acid Lipid Nanoparticle Preparations in Mice After the preparation was completed, the preparation was injected intramuscularly (mice rectus femoris muscle of the thigh) or intravenously (mice tail vein), with approximately 75 μL per mouse, for a total of 3 mice. After a certain time of injection, in vivo imaging (PerkinElmer, IVIS Lumina III) was performed. 10-15 minutes before imaging, 200 μL of 15 mg/mL D-Luciferin working solution was injected intraperitoneally, and the imaging analysis was performed using an in vivo imager.

[3] = molar ratio 1.40:11.15:38.95:48.50, N/P 36, IV formulation
[4] = molar ratio 2.00:4.00:59.00:35.00, N/P 35, IM formulation
[5] = molar ratio 1.40:11.15:38.95:48.50, N/P 32, IV formulation
[6] = molar ratio 1.40:11.15:38.95:48.50, N/P 28, IM formulation
[7] = molar ratio 2.50:11.50:51.00:35.00, N/P 32, IV formulation

SMILES	PDI [1]	Particle size (nm) [1]	In vivo IVIS ([2]; IM)	In vivo IVIS ([2]; IV)	also measured
CCCCCCCCCCCCNC(=O)C(O)CN(CC(O)C(=O)NCCCCCCCCCCCC)[C@H]1CC[C@H](N(CC(O)C(=O)NCCCCCCCCCCCC)CC(O)C(=O)NCCCCCCCCCCCC)CC1 (stereo partly shown) [Compound L0214]	0.21 ± 0.01	177.07 ± 1.00 nm	2.46 × 10^5	3.60 × 10^5	–
CCCCCCCCCCNC(=O)C(O)CN(Cc1ccc(CN(CC(O)C(=O)NCCCCCCCCCC)CC(O)C(=O)NCCCCCCCCCC)cc1)CC(O)C(=O)NCCCCCCCCCC (stereo not shown) [Compound L0215]	0.11 ± 0.01	119.27 ± 1.75 nm	2.45 × 10^5	4.06 × 10^5	–
CCCCCCCCCCNC(=O)C(O)CN(CC(O)C(=O)NCCCCCCCCCC)[C@H]1CC[C@@H](N(CC(O)C(=O)NCCCCCCCCCC)CC(O)C(=O)NCCCCCCCCCC)CC1 (stereo partly shown) [Compound L0216]	0.08 ± 0.02	117.97 ± 1.91 nm	3.58 × 10^5	2.18 × 10^5	–
CCCCCCCCCCNC(=O)C(O)CN[C@H]1CC[C@@H](N(CC(O)C(=O)NCCCCCCCCCC)CC(O)C(=O)NCCCCCCCCCC)CC1 (stereo partly shown) [Compound L0217]	0.09 ± 0.02	87.05 ± 0.47 nm	2.97 × 10^6	2.87 × 10^7	–
CCCCCCCCCCNC(=O)C(O)CN(CC(O)C(=O)NCCCCCCCCCC)[C@H]1CC[C@H](N(CC(O)C(=O)NCCCCCCCCCC)CC(O)C(=O)NCCCCCCCCCC)CC1 (stereo partly shown) [Compound L0218]	0.07 ± 0.02	109.43 ± 1.16 nm	8.49 × 10^5	5.55 × 10^5	–
CCCCCCCCCCNC(=O)C(O)CN[C@H]1CC[C@H](N(CC(O)C(=O)NCCCCCCCCCC)CC(O)C(=O)NCCCCCCCCCC)CC1 (stereo partly shown) [Compound L0219]	0.09 ± 0.01	102.47 ± 0.96 nm	2.79 × 10^6	8.48 × 10^7	–
CCCCCCOC(C)OCCCCCCOC(=O)C(O)CN1CCN(CCN(CC(O)C(=O)OCCCCCCOC(C)OCCCCCC)CC(O)C(=O)OCCCCCCOC(C)OCCCCCC)CC1 (stereo not shown) [Compound L0220]	0.08 ± 0.02	106.97 ± 0.21 nm	1.32 × 10^6	1.82 × 10^8	–
CC/C=C\CCOCOCCCCCCOC(=O)C(O)CN1CCN(CCN(CC(O)C(=O)OCCCCCCOCOCC/C=C\CC)CC(O)C(=O)OCCCCCCOCOCC/C=C\CC)CC1 (stereo not shown) [Compound L0221]	0.07 ± 0.02	140.97 ± 1.48 nm	1.85 × 10^5	3.94 × 10^5	–
CCCC/C=C\CCOCOCCCCOC(=O)C(O)CN1CCN(CCN(CC(O)C(=O)OCCCCOCOCC/C=C\CCCC)CC(O)C(=O)OCCCCOCOCC/C=C\CCCC)CC1 (stereo not shown) [Compound L0222]	0.05 ± 0.01	133.83 ± 0.72 nm	4.38 × 10^5	7.94 × 10^6	–
CCCCCCCC/C=C\CCCCCCCCNC(=O)C(O)CN1CCN(CCN(CC(O)C(=O)NCCCCCCCC/C=C\CCCCCCCC)CC(O)C(=O)NCCCCCCCC/C=C\CCCCCCCC)CC1 (stereo not shown) [Compound L0223]	0.13 ± 0.03	98.88 ± 1.32 nm	1.83 × 10^6	1.42 × 10^8	–
CCCCCCOC(C)OCCCCCCOC(=O)C(O)CN(CCCN1CCN(CCCN(CC(O)C(=O)OCCCCCCOC(C)OCCCCCC)CC(O)C(=O)OCCCCCCOC(C)OCCCCCC)CC1)CC(O)C(=O)OCCCCCCOC(C)OCCCCCC (stereo not shown) [Compound L0224]	–	–	3.31 × 10^8	4.84 × 10^9	PDI [1, 3]: 0.07 ± 0.02; Particle size (nm) [1, 3]: 108.57 ± 1.60 nm; PDI [1, 4]: 0.14 ± 0.01; Particle size (nm) [1, 4]: 84.67 ± 0.79 nm
CC/C=C\CCOCOCCCCCCOC(=O)C(O)CN(CCCN1CCN(CCCN(CC(O)C(=O)OCCCCCCOCOCC/C=C\CC)CC(O)C(=O)OCCCCCCOCOCC/C=C\CC)CC1)CC(O)C(=O)OCCCCCCOCOCC/C=C\CC (stereo not shown) [Compound L0225]	0.10 ± 0.01	117.87 ± 1.55 nm	3.13 × 10^8	2.15 × 10^9	–
CCCC/C=C\CCOCOCCCCOC(=O)C(O)CN(CCCN1CCN(CCCN(CC(O)C(=O)OCCCCOCOCC/C=C\CCCC)CC(O)C(=O)OCCCCOCOCC/C=C\CCCC)CC1)CC(O)C(=O)OCCCCOCOCC/C=C\CCCC (stereo not shown) [Compound L0226]	0.09 ± 0.03	115.53 ± 1.04 nm	1.41 × 10^8	1.24 × 10^9	–
CCCCCCC(CCCCCC)C(=O)OCCCCCCOC(=O)C(O)CN(CCCN1CCN(CCCN(CC(O)C(=O)OCCCCCCOC(=O)C(CCCCCC)CCCCCC)CC(O)C(=O)OCCCCCCOC(=O)C(CCCCCC)CCCCCC)CC1)CC(O)C(=O)OCCCCCCOC(=O)C(CCCCCC)CCCCCC (stereo not shown) [Compound L0227]	–	–	3.49 × 10^8	2.49 × 10^8	PDI [1, 5]: 0.15 ± 0.01; Particle size (nm) [1, 5]: 113.50 ± 0.96 nm; PDI [1, 4]: 0.13 ± 0.01; Particle size (nm) [1, 4]: 112.03 ± 0.65 nm
CCCCCCCCCCCCCCOC(=O)C(O)CN(CCCN1CCN(CCCN(CC(O)C(=O)OCCCCCCCCCCCCCC)CC(O)C(=O)OCCCCCCCCCCCCCC)CC1)CC(O)C(=O)OCCCCCCCCCCCCCC (stereo not shown) [Compound L0228]	–	–	8.22 × 10^6	9.28 × 10^9	PDI [1, 6]: 0.18 ± 0.01; Particle size (nm) [1, 6]: 140.50 ± 1.21 nm; PDI [1, 7]: 0.13 ± 0.01; Particle size (nm) [1, 7]: 120.07 ± 0.60 nm
CCCCCCCC/C=C\CCCCCCCCNC(=O)C(O)CN(CCCN1CCN(CCCN(CC(O)C(=O)NCCCCCCCC/C=C\CCCCCCCC)CC(O)C(=O)NCCCCCCCC/C=C\CCCCCCCC)CC1)CC(O)C(=O)NCCCCCCCC/C=C\CCCCCCCC (stereo not shown) [Compound L0229]	0.10 ± 0.02	179.07 ± 0.38 nm	5.61 × 10^6	2.46 × 10^8	–
